Experimental data taken from patent publication US20250230171A1 (MOMA Therapeutics, Inc., priority 2023, published 2025).
Like-named read-outs stand apart in the source and are kept apart here.

Molecular target: biotinylated Avi-POLθ[2-894] (Homo sapiens (Human), UniProt O75417)
Experiment: POLθ ATPase assay (ADP-Glo)
Conditions: n=2, read-out: Biochemical ATPase ADPGlo IC50

biotinylated Avi-POLθ[2-894], sequence (O75417 2-894): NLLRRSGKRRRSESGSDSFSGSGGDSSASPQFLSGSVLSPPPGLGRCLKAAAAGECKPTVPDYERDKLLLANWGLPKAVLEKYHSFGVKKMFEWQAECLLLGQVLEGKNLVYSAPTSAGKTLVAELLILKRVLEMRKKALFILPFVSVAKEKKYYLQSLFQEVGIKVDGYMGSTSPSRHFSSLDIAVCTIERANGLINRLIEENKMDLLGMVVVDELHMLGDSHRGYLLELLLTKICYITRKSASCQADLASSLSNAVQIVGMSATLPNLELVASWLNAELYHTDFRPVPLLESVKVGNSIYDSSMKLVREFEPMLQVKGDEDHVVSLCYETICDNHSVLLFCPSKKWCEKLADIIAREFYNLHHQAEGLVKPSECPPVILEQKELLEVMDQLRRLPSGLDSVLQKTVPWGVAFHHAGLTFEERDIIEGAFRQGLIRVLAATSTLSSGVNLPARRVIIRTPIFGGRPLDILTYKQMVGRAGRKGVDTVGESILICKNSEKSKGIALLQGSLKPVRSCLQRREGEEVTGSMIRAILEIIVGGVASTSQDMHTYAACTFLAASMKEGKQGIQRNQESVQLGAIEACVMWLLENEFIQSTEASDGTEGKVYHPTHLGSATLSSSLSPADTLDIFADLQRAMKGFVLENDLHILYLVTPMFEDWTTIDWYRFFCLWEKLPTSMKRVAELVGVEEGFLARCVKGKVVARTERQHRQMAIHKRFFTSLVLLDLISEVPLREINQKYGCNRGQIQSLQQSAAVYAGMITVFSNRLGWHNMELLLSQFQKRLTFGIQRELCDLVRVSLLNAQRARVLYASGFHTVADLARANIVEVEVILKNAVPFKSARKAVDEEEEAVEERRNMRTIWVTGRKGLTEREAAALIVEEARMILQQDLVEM

Compound	IC50	IC50 (POLθ ATPase, ADP-Glo)
COc1ccccc1-c1cc(C)ncc1C(=O)Nc1nc2c(s1)CN(C(=O)C1CCOC1)C2 (stereo not shown)	0.15 to 0.9 µM	
COc1ccccc1-c1cc(C)ncc1C(=O)Nc1nc2c(s1)CN(c1nccs1)C2	≥ 0.9 µM	
COc1ccccc1-c1cc(C)ncc1C(=O)Nc1nc2c(s1)CN(C(=O)C1CCCO1)C2 (racemic)	0.15 to 0.9 µM	
COc1ccccc1-c1cc(C)ncc1C(=O)Nc1nc2c(s1)CC(=O)CC2 [Example 373]	≥ 0.9 µM	
COc1ccccc1-c1cc(C)ncc1C(=O)Nc1nc2c(s1)CN(C(=O)C1CCN(C)C1=O)C2 (stereo not shown)	≥ 0.9 µM	
COc1ccccc1-c1cc(C)ncc1C(=O)Nc1nc2c(s1)CN(C(=O)c1ccc(=O)n(C)c1)C2	0.15 to 0.9 µM	
COc1cnc(Cl)cc1-c1cc(C)ncc1C(=O)Nc1nc2c(s1)C[C@@H](C(=O)N1CC(O)C1)CC2	0.15 to 0.9 µM	
COc1nc(C(=O)N2Cc3nc(NC(=O)c4cnc(C)cc4-c4cc(Cl)cnc4O)sc3C2)c(C)cc1C(F)(F)F [Example 1043, 5-chloro-2-hydroxy-N-(5-(6-methoxy-3-methyl-5-(trifluoromethyl)picolinoyl)-5,6-dihydro-4H-pyrrolo[3,4-d]thiazol-2-yl)-6′-methyl-[3,4′-bipyridine]-3′-carboxamide]		≥ 0.9 µM
COc1ccc(C#N)cc1-c1cc(C)ncc1C(=O)Nc1nc2c(s1)CN(C(=O)c1ccncc1)CC2 (racemic) [Example 213]	0.15 to 0.9 µM	
COc1ccccc1-c1cc(C)ncc1C(=O)Nc1nc2c(s1)CN(C(=O)C1CCN1C(C)=O)C2 (stereo not shown)	≥ 0.9 µM	
CNC(=O)N1Cc2nc(NC(=O)c3cnc(C)cc3-c3ccccc3OC)sc2C1	≥ 0.9 µM	
COc1ccc(C#N)cc1-c1cc(C)ncc1C(=O)Nc1nc2c(s1)CN(C(=O)C1CCOC1)CC2 (stereo not shown)	0.15 to 0.9 µM	
COc1ccccc1-c1cc(C)ncc1C(=O)Nc1nc2c(s1)CN(C(=O)c1cnco1)C2	0.15 to 0.9 µM	
COc1cncc(C(=O)N2Cc3nc(NC(=O)c4cnc(C)cc4-c4cc(Cl)ncc4OC)sc3C2)n1 [Example 528]		0.001 to 0.015 µM
COc1ccc(C#N)cc1-c1cc(C)ncc1C(=O)Nc1nc2c(s1)CN(C(=O)C1CCC1)CC2 [Example 224]	0.15 to 0.9 µM	
COc1cnc(Cl)cc1-c1cc(C)ncc1C(=O)Nc1nc2c(s1)CN(C(=O)[C@@H]1C[C@@H]1CO)C2 [Example 107, 2′-chloro-N-(5-((1R,2S)-2-(hydroxymethyl)cyclopropane-1-carbonyl)-5,6-dihydro-4H-pyrrolo[3,4-d]thiazol-2-yl)-5′-methoxy-6-methyl-[4,4′-bipyridine]-3-carboxamide]	0.05 to 0.15 µM	
COc1ccccc1-c1cc(C)ncc1C(=O)Nc1nc2c(s1)CN(C(=O)c1cc3ccccn3n1)C2	0.05 to 0.15 µM	
COc1ccccc1-c1cc(C)ncc1C(=O)Nc1nc2c(s1)CN(C(=O)OC(C)(C)C)CC2 [Example 335]	0.15 to 0.9 µM	
COc1cnc(Cl)cc1-c1cc(C)ncc1C(=O)Nc1nc2c(s1)CN(C(=O)[C@@H]1CC[C@](O)(C(F)(F)F)C1)C2 [Example 734, 2′-chloro-N-(5-((1R,3R)-3-hydroxy-3-(trifluoromethyl)cyclopentane-1-carbonyl)-5,6-dihydro-4H-pyrrolo[3,4-d]thiazol-2-yl)-5′-methoxy-6-methyl-[4,4′-bipyridine]-3-carboxamide]		0.001 to 0.015 µM
COc1cnc(Cl)cc1-c1cc(C)ncc1C(=O)Nc1nc2c(s1)C[C@@H](C(=O)N[C@H]1CC[C@H]1O)CC2		0.15 to 0.9 µM

The next lines start with the values.

IC50	IC50 (POLθ ATPase, ADP-Glo)	Compound
0.05 to 0.15 µM		COc1ccccc1-c1cc(C)ncc1C(=O)Nc1nc2c(s1)CN(C(=O)c1ncccc1C#N)C2
0.001 to 0.015 µM		COc1ccc(C#N)cc1-c1cc(C)ncc1C(=O)Nc1nc2c(s1)CN(C(=O)[C@@H]1CC[C@H]1OC)C2 [Example 235]
0.001 to 0.015 µM		COc1cnc(Cl)cc1-c1cc(C)ncc1C(=O)Nc1nc2c(s1)CN(C(=O)c1ncn(C)n1)C2 [Example 50, 2′-chloro-5′-methoxy-6-methyl-N-(5-(1-methyl-1H-1,2,4-triazole-3-carbonyl)-5,6-dihydro-4H-pyrrolo[3,4-d]thiazol-2-yl)-[4,4′-bipyridine]-3-carboxamide]
0.015 to 0.05 µM		COc1ccc(C#N)cc1-c1cc(C)ncc1C(=O)Nc1nc2c(s1)CN(S(=O)(=O)C1CCOC1)C2 (stereo not shown)
0.05 to 0.15 µM		COc1ccccc1-c1cc(C)ncc1C(=O)Nc1nc2c(s1)CN(C(=O)C1CCOCC1)C2 (racemic)
0.015 to 0.05 µM		COc1cnc(Cl)cc1-c1cc(C)ncc1C(=O)Nc1nc2c(s1)C[C@H](C(=O)NC1CCC1)CC2 (single isomer, unassigned) [Example 27, (R or S)-2-(2′-chloro-5′-methoxy-6-methyl-[4,4′-bipyridine]-3-carboxamido)-N-cyclobutyl-4,5,6,7-tetrahydrobenzo[d]thiazole-6-carboxamide]
0.015 to 0.05 µM		COc1ccccc1-c1cc(C)ncc1C(=O)Nc1nc2c(s1)CN(C(=O)c1cn(C)nc1OC)C2
0.001 to 0.015 µM		COc1cnc(Cl)cc1-c1cc(C)ncc1C(=O)Nc1nc2c(s1)CN(C(=O)[C@H]1C[C@](O)(C(F)F)C1)C2 [Example 195]
0.001 to 0.015 µM		COc1cnc(Cl)cc1-c1cc(C)ncc1C(=O)Nc1nc2c(s1)CN(C(=O)c1c(C)nn(C)c1C)C2 [Example 76, 2′-chloro-5′-methoxy-6-methyl-N-(5-(1,3,5-trimethyl-1H-pyrazole-4-carbonyl)-5,6-dihydro-4H-pyrrolo[3,4-d]thiazol-2-yl)-[4,4′-bipyridine]-3-carboxamide]
0.015 to 0.05 µM		CCn1cc(C(=O)N2Cc3nc(NC(=O)c4cnc(C)cc4-c4cc(Cl)ncc4OC)sc3C2)cn1 [Example 62, 2′-chloro-N-(5-(1-ethyl-1H-pyrazole-4-carbonyl)-5,6-dihydro-4H-pyrrolo[3,4-d]thiazol-2-yl)-5′-methoxy-6-methyl-[4,4′-bipyridine]-3-carboxamide]
0.001 to 0.015 µM		COc1cnc(Cl)cc1-c1cc(C)ncc1C(=O)Nc1nc2c(s1)CN(C(=O)[C@H]1C[C@@](C)(O)C1)C2 [Example 193]
0.001 to 0.015 µM		COc1cnc(Cl)cc1-c1cc(C)ncc1C(=O)Nc1nc2c(s1)CN(C(=O)[C@H]1C[C@@H](O)C1)C2 [Example 185]
0.001 to 0.015 µM		COc1cn2cncc2cc1-c1cc(C)ncc1C(=O)Nc1nc2c(s1)CN(C(=O)c1cccnc1OC)C2 [Example 124]
0.015 to 0.05 µM		COc1ccc(C#N)cc1-c1cc(C)ncc1C(=O)Nc1nc2c(s1)CN(S(=O)(=O)C1(C)CC1)C2
0.001 to 0.015 µM		COc1cnc(Cl)cc1-c1cc(C)ncc1C(=O)Nc1nc2c(s1)CN(C(=O)C1CC(OC(C)C)C1)C2 (stereo not shown) [Example 119]
0.001 to 0.015 µM		COc1cnc(Cl)cc1-c1cc(C)ncc1C(=O)Nc1nc2c(s1)CN(C(=O)C1CCOCC1)C2 [Example 184]
0.001 to 0.015 µM		COc1cnc(Cl)cc1-c1cc(C)ncc1C(=O)Nc1nc2c(s1)CN(C(=O)[C@H]1C[C@@](F)(CO)C1)C2 [Example 106, 2′-chloro-N-(5-((1r,3r)-3-fluoro-3-(hydroxymethyl)cyclobutane-1-carbonyl)-5,6-dihydro-4H-pyrrolo[3,4-d]thiazol-2-yl)-5′-methoxy-6-methyl-[4,4′-bipyridine]-3-carboxamide]
0.001 to 0.015 µM		COc1cnc(Cl)cc1-c1cc(C)ncc1C(=O)Nc1nc2c(s1)CN(C(=O)[C@H]1C[C@H](O)C1)C2 [Example 187]
0.001 to 0.015 µM		COc1ccc(C#N)cc1-c1cc(C)ncc1C(=O)Nc1nc2c(s1)CN(S(=O)(=O)NC1CCCC1)C2 [Example 230]
0.001 to 0.015 µM		COc1cnc(Cl)cc1-c1cc(C)ncc1C(=O)Nc1nc2c(s1)CN(C(=O)[C@H]1CCCOC1)C2 [Example 183]
